Experimental data from patent US20070043003A1, “Novel compounds for the prophylaxis and treatment of inflammatory bowel diseases” (Hikma Pharmaceuticals Co., Ltd., priority 2005, published 2007).
“And” between values parts separate entries of the source, which are not always exact repeats. Identical values can stand only once.

Legend:
[1] = test system: TNB (trinitrobenzenesulfonic acid)-induced ulcerative colitis; experiment: Rats with TNB-induced ulcerative colitis, macroscopic and microscopic examination of intestine, colon and cecum; type: in vivo, rat; design: key to Overall degree of inflammation / Mucosal inflammation and ulceration / Submucosal inflammation / Full thickness inflammation: − = No inflammation (normal); ± = Very minimal mucosal inflammation; + = Mild; +2 = Moderate; +3 = Severe; conditions: for Full thickness inflammation / Mucosal inflammation and ulceration / Overall degree of inflammation / Submucosal inflammation: one rat per row; for activity against intestinal bowel disease: compared to the known compound 5ASA
Procedure: Rats with TNB (trinitrobenzenesulfonic acid)-induced ulcerative colitis were used as an animal model. 28 rats were randomly grouped (A, B, C1, C2, D1 and D2). Group A is used as positive control and each of the other three groups received a predetermined dose of compounds under testing (see Table 3). Animals were fasted for one night before taking the TNB solution. All animals received a solution (0.25 ml) of TNB in methylcelullose solution (50% methylcellulose in absolute ethanol) containing 20 mg of TNB. The TNB solution was administered by intracolonic administration using a syringe and rubber canula. The canula was inserted into the lumen of the colon via the anus. The cannula was advanced so that its tip was 8 cm from the anus. […] Group A took 0.5 ml of the suspension containing 2.5 mg of methylcellulose solution twice daily. • 2. […] The treatments were given for eight days, and on the 9th day the animals were sacrificed and opened along their abdomen for evaluation. The animals were subjected to the following testing • 1. Physical testing, as looking at the weight, […], general health, etc. • 2. Looking at the intestine before opening, colouration, thickness, etc. 3. Dissecting the intestine the colon and the cecum and examining them macroscopically and microscopically.

[2] = upon oral administration; cited from earlier work
[3] = Group B: 5 mg 5ASA orally twice daily for eight days
[4] = Group C-1: 18 mg compound 9 orally twice daily for eight days
[5] = Group C-2: 28 mg compound 9 orally twice daily for eight days
[6] = Group D-1: 12 mg compound 5 orally twice daily for eight days
[7] = Group D-2: 18 mg compound 5 orally twice daily for eight days

Nc1ccc(O)c(C(=O)O)c1 [5ASA, 5-aminosalicylic acid, reference compound]
Full thickness inflammation [1, 3]: + | Mucosal inflammation and ulceration [1, 3]: + | Overall degree of inflammation [1, 3]: +2 (4×) and +3 and +1 | Submucosal inflammation [1, 3]: +

O=C(O)c1cc(N=Nc2ccc(S(=O)(=O)Nc3ccccn3)cc2)ccc1O [SS, 2-Hydroxy-5-[4-(2-pyridylsulfamoyl)phenylazo]benzoic acid]
fraction of a given dose absorbed from the small intestine [2]: about one-third

O=C(O)Cc1ccc2oc(-c3ccc(N=Nc4ccc(O)c(C(=O)O)c4)cc3)nc2c1 [compound 9, 2-Hydroxy-5-[4-(benzoxazol-2-yl-5-acetic acid)phenylazo]benzoic acid]
Full thickness inflammation [1, 4]: − | Mucosal inflammation and ulceration [1, 4]: − and + (5×) | Overall degree of inflammation [1, 4]: − and ± (3×) and +1 (2×) | Submucosal inflammation [1, 4]: − (3×) and ± and + (2×) | Full thickness inflammation [1, 5]: − | Mucosal inflammation and ulceration [1, 5]: + | Overall degree of inflammation [1, 5]: ± (2×) and +1 | Submucosal inflammation [1, 5]: ± (2×) and + | activity against intestinal bowel disease [1]: significantly higher activity

Nc1ccc(-c2nc3cc(CC(=O)O)ccc3o2)cc1 [compound 5, 4-aminophenylbenzoxazole-5-acetic acid]
Full thickness inflammation [1, 6]: + (3×) and − (2×) | Mucosal inflammation and ulceration [1, 6]: + (4×) and − | Overall degree of inflammation [1, 6]: +1 (3×) and ± and − | Submucosal inflammation [1, 6]: + (3×) and − (2×) | Full thickness inflammation [1, 7]: − | Mucosal inflammation and ulceration [1, 7]: + | Overall degree of inflammation [1, 7]: +1 | Submucosal inflammation [1, 7]: + | activity against intestinal bowel disease [1]: significantly higher activity
